In patent publication US20090318412A1, “Tricyclic heterocyclic compound and use thereof” (priority 2006, published 2009):
Counter-ions that a name gives are not always drawn.

Each compound was assayed against serotonin 5-HT2C receptor (Homo sapiens, UniProt P28335, I156V/I160V/N158S) (assay: cell-based). Conditions: CHO, read-out: ratio to maximum response by 5-HT.
serotonin 5-HT2C receptor, sequence (P28335 33-458 I156V/N158S/I160V limits assumed): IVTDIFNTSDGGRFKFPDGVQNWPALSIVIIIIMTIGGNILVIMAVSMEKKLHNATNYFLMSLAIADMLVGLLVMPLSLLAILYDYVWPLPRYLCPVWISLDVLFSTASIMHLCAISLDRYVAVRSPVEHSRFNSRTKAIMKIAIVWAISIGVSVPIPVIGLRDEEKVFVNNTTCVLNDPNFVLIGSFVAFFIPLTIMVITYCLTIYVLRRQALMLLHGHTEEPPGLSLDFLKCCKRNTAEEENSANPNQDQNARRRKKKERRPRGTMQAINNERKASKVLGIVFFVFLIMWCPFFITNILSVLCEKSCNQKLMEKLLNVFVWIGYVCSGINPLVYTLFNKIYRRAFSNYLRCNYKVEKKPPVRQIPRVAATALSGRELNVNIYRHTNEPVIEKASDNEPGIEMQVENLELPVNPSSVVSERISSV
Work on O=C1c2ccccc2OCC2CNCCN12 (stereo not drawn) [Example 1, 1,2,3,4,12,12a-hexahydro-6H-pyrazino[2,1-c][1,4]benzoxazepin-6-one hydrochloride] yielded an Emax of 114%.
c1ccc2c(c1)CN1CCNCC1CO2 (stereo not drawn) [Example 2, 1,2,3,4,12,12a-hexahydro-6H-pyrazino[2,1-c][1,4]benzoxazepine dihydrochloride] was tested, and the Emax was 116%.
O=C1c2cccc(Cl)c2OCC2CNCCN12 (stereo not drawn) [Example 3, 10-chloro-1,2,3,4,12,12a-hexahydro-6H-pyrazino[2,1-c][1,4]benzoxazepin-6-one hydrochloride] gave an Emax of 98.2%.
For O=C1c2c(Cl)cccc2OCC2CNCCN12 (stereo not drawn) [Example 4, 7-chloro-1,2,3,4,12,12a-hexahydro-6H-pyrazino[2,1-c][1,4]benzoxazepin-6-one hydrochloride], the Emax was 94.6%.
O=C1c2ccc(Cl)cc2OCC2CNCCN12 (stereo not drawn) [Example 5, 9-chloro-1,2,3,4,12,12a-hexahydro-6H-pyrazino[2,1-c][1,4]benzoxazepin-6-one hydrochloride] gave an Emax of 101%.
Compound O=C1c2cc(Cl)ccc2OCC2CNCCN12 (stereo not drawn) [Example 6, 8-chloro-1,2,3,4,12,12a-hexahydro-6H-pyrazino[2,1-c][1,4]benzoxazepin-6-one hydrochloride] has an Emax of 99.4%.
Clc1ccc2c(c1)CN1CCNCC1CO2 (stereo not drawn) [Example 7, 8-chloro-1,2,3,4,12,12a-hexahydro-6H-pyrazino[2,1-c][1,4]benzoxazepine dihydrochloride] was tested, and the Emax was 107%.
O=C1c2cc(C(F)(F)F)ccc2OCC2CNCCN12 (stereo not drawn) [Example 8, 8-(trifluoromethyl)-1,2,3,4,12,12a-hexahydro-6H-pyrazino[2,1-c][1,4]benzoxazepin-6-one hydrochloride] gave an Emax of 96.5%.
In the case of FC(F)(F)c1ccc2c(c1)CN1CCNCC1CO2 (stereo not drawn) [Example 9, 8-(trifluoromethyl)-1,2,3,4,12,12a-hexahydro-6H-pyrazino[2,1-c][1,4]benzoxazepine dihydrochloride], the Emax is reported as 91.5%.
With O=C1c2cc(Br)ccc2OCC2CNCCN12 (stereo not drawn) [Example 10, 8-bromo-1,2,3,4,12,12a-hexahydro-6H-pyrazino[2,1-c][1,4]benzoxazepin-6-one hydrochloride] the Emax was 107%.
Cc1ccc2c(c1)C(=O)N1CCNCC1CO2 (stereo not drawn) [Example 13, 8-methyl-1,2,3,4,12,12a-hexahydro-6H-pyrazino[2,1-c][1,4]benzoxazepin-6-one hydrochloride] gave an Emax of 96.9%.
For COc1ccc2c(c1)C(=O)N1CCNCC1CO2 (stereo not drawn) [Example 31, 8-methoxy-1,2,3,4,12,12a-hexahydro-6H-pyrazino[2,1-c][1,4]benzoxazepin-6-one hydrochloride], the Emax was 93.8%.
Work on Cc1cccc2c1OCC1CNCCN1C2=O (stereo not drawn) [Example 37, 10-methyl-1,2,3,4,12,12a-hexahydro-6H-pyrazino[2,1-c][1,4]benzoxazepin-6-one hydrochloride] yielded an Emax of 98.3%.
O=C1c2c(Br)cccc2OCC2CNCCN12 (stereo not drawn) [Example 41, 7-bromo-1,2,3,4,12,12a-hexahydro-6H-pyrazino[2,1-c][1,4]benzoxazepin-6-one hydrochloride] showed an Emax of 96%.
For O=C1c2c(cccc2C(F)(F)F)OCC2CNCCN12 (stereo not drawn) [Example 42, 7-(trifluoromethyl)-1,2,3,4,12,12a-hexahydro-6H-pyrazino[2,1-c][1,4]benzoxazepin-6-one hydrochloride], the Emax was 88.4%.
